{
  "source": "patent US7582415B2",
  "about": "“Rapid detection of replicating cells” (priority 2001, dated 2009)",
  "key": {"[1]": {"test_system": "E. coli MG1655 (sensitive strain)", "test": "microbe, parasite or virus in culture", "conditions": "Escherichia coli, MG1655, 5 h, read-out: zone of inhibition, segment of the E-test strip (minimal inhibitory concentration)", "method": "This minimal inhibitory concentration is based on the visualization of zones with no growth, called the zone of inhibition. The zone of inhibition is traditionally measured by the naked eye after an overnight growth.\nExperimental Methods: The strains, used in the example and described in Example 13, were diluted to 10^6 CFU/ml and plated on TSA media. […] The microcolonies growing on or near the test strip were imaged using microcolony autofluorescence and non-magnified large area imaging as in previous examples. After imaging, the plates were allowed to incubate overnight."}, "[2]": {"test_system": "E. coli MG1655/pLafr I (resistant strain)", "test": "E-test strip susceptibility test with autofluorescent microcolony imaging", "assay_type": "cell-based", "conditions": "E-test strip 0.016-256 μg tetracycline, TSA, 5 hours at 37° C.", "method": "After imaging, the plates were allowed to incubate overnight."}},
  "data": [
    {"molecule": "CN(C)[C@@H]1C(O)=C(C(N)=O)C(=O)[C@@]2(O)C(O)=C3C(=O)c4c(O)cccc4[C@@](C)(O)[C@H]3C[C@@H]12", "note": "[tetracycline]", "values": [
      {"measurement": "MIC", "setting": "[1]", "result": "~2", "unit": "µg/mL"},
      {"measurement": "segment of the E-test strip near which the strain grows", "setting": "[2]", "result": "~256", "unit": "µg/mL"}
    ]}
  ]
}
